In patent US20230219978A1, “COMPOUND HAVING MACROCYCLIC STRUCTURE AND USE THEREOF” (SCINNOHUB PHARMACEUTICAL CO., LTD, priority 2020, published 2023) one finds IC50 data, which are given here for 14 molecules.

Holding throughout (format): biochemical
The target in one assay is T1, BTK C481S (Homo sapiens, UniProt Q06187, C481S).
T1 construct: purchased Carna 08-547
Put plainly: In vitro kinase activity assay (mobility shift assay), BTK C481S. The settings on record: ATP 90 μM, reaction time 30 min. Here is the method: (§1) The IC50 (half inhibitory concentration) values of the compounds were used as an indicator to evaluate the inhibitory effect of the compound on RET wild-type, RET mutant, TRKa, SRC, BTK and/or mutated BTK kinase.
(§2) Using the method of Mobility shift assay, the compounds were tested for inhibitory activity against the following kinases: RET wild type, RET mutant, TRKa, SRC, BTK and/or mutated BTK. The initial concentration of the test compound was 1000 nM, 3-fold dilution, 10 concentrations, detected in a well for each concentration.
(§3) 20 mM hydroxyethylpiperazineethanesulfonic acid (Hepes) (pH 7.5) buffer, 10 mM MgCl2, 1 mM ethylene glycol bis(aminoethyl ether)tetraacetic acid (EGTA), 0.02% polyoxyethylene lauryl ether (Brij35), 0.02 mg/ml […] (BSA), 0.1 mM Na3VO4, 2 mM dithiothreitol (DTT), 1% DMSO.
(§4) The test compounds were dissolved in 100% dimethyl sulfoxide (DMSO) system, and prepared as 10 mM for use, and stored in a nitrogen cabinet away from light.
(§5) • (1) Preparing 1× kinase reaction buffer. • (2) Preparation of compound concentration gradient: the initial concentration of the compounds was 1000 nM, which was diluted as 100-fold final concentration of solution in 100% dimethyl sulfoxide (DMSO) in a 384-well plate. The compound was accurately 3-fold diluted with the kinase buffer solution, 10 concentrations in total, and the final concentration was 0.0508 nM. The 100-fold final concentration of solution in 100% dimethyl sulfoxide (DMSO) was obtained by dilution in 384 source plate. The liquid separator Echo 550 was used to transfer 250 nl of 100-fold final concentration of compound to the target 384 well plate. 250 nl of DMSO was added to the positive and negative control wells. • (3) 2.5-fold final concentration of kinase solution was prepared by the 1× kinase buffer. • (4) 10 4, of 2.5-fold final concentration of kinase solution was added to the compound well and the positive control well, respectively; 10 4, of 1× kinase buffer was added to the negative control well. • (5) After centrifuging at 1000 rpm for 30 second, the reaction plate was shaken and mixed, followed by incubation at room temperature for 10 min. • (6) a mixed solution of 25/15-fold final concentration of adenosine triphosphate (ATP) and kinase substrate was prepared by 1× kinase buffer. • (7) The mixed solution (15 μL) of 25/15-fold final concentration of adenosine triphosphate (ATP) and substrate was added to initiate the reaction. • (8) 384-well plate was centrifuged at 1000 rpm for 30 second, shaken and mixed well, and then incubated at room temperature for 30-240 min. • (9) After stopping the kinase reaction, the plate was centrifugated at 1000 rpm for 30 second, shaken and mixed well. • (10)The conversion rate was read with Caliper EZ Reader.
(§6) wherein Conversion%_sample is the conversion rate reading of the sample; Conversion%_min: the mean value of negative control wells, representing the conversion rate reading of wells without enzymes; Conversion%_max: the mean value of positive control wells, representing the conversion rate reading of wells without compound inhibition.
(§7) The log value of concentration was taken as the X axis, and the percentage inhibition rate was taken as the Y axis. Graphpad 6.0 analysis software was used to fit the dose-response curve, so as to obtain the IC50 value of each compound on the enzyme activity

Another assay deals with T2, RET V804M (Homo sapiens, UniProt P07949, V804M).
T2 construct: purchased signalchem R02-12GG
T2 sequence (P07949 29-1114 V804M): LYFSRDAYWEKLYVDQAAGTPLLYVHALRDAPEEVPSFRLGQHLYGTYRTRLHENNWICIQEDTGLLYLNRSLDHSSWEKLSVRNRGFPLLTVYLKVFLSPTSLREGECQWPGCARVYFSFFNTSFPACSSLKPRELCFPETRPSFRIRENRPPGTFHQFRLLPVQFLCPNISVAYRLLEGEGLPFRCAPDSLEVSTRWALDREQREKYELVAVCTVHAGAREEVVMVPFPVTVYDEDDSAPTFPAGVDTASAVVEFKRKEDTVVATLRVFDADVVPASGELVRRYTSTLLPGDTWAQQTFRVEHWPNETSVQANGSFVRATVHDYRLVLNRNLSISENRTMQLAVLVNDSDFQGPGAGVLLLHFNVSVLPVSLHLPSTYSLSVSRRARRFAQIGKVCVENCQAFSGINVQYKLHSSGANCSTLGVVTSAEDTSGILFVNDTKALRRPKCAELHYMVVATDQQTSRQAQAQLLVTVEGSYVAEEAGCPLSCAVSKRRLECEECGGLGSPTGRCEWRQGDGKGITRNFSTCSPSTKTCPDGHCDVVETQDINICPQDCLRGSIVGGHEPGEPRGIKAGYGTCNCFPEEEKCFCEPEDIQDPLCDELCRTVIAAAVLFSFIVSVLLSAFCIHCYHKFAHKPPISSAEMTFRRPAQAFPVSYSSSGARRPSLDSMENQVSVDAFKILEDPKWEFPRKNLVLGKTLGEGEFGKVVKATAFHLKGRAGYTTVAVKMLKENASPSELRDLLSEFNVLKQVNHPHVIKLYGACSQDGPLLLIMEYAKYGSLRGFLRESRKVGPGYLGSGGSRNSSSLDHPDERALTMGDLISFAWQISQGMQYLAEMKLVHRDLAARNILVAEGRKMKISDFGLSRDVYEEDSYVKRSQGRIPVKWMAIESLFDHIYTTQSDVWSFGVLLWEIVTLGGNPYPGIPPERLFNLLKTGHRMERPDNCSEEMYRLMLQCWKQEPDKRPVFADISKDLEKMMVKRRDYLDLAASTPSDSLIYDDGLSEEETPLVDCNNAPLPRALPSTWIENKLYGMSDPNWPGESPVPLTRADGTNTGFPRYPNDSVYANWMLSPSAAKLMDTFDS
Put plainly: In vitro kinase activity assay (mobility shift assay), RET V804M. The settings on record: ATP 5.4 μM, reaction time 60 min. Summed up:
(§8)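 Each enzyme was first exposed to test compound (top 1000 nM, 3-fold dilutions, 10 concentrations, one well each) for 10 min at room temperature. Adding ATP and peptide substrate started the reaction, which proceeded 30-240 min before stopping. Conversion was then measured and curves fitted for IC50.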

In another assay the target is T3, RET wt (Homo sapiens, UniProt P07949).
T3 construct: purchased Carna 08-159
T3 sequence (P07949 29-1114): as the sequence (P07949 29-1114 V804M) above, with M776V counted along it
Put plainly: In vitro kinase activity assay (mobility shift assay), RET wild type. Conditions: ATP 16 μM, reaction time 60 min. Summed up: as §8

The target in another assay is T4, RET G810R (Homo sapiens, UniProt P07949, G810R).
T4 construct: purchased Proqinase 1724-0000-1
T4 sequence (P07949 29-1114 G810R): as the sequence (P07949 29-1114 V804M) above, with M776V, G782R counted along it
Put plainly: In vitro kinase activity assay (mobility shift assay), RET G810R. Conditions: ATP 201 μM, reaction time 4 h. In a few lines: as §8

Another assay addresses T5, BTK (Homo sapiens, UniProt Q06187).
T5 construct: purchased Carna 08-180
Put plainly: In vitro kinase activity assay (mobility shift assay), BTK. The settings on record: ATP 71 μM, reaction time 30 min. Summed up:
as §8

The target in the next assay is T6, SRC (Homo sapiens, UniProt P12931).
T6 construct: purchased Carna 08-173
T6 sequence (P12931 whole entry): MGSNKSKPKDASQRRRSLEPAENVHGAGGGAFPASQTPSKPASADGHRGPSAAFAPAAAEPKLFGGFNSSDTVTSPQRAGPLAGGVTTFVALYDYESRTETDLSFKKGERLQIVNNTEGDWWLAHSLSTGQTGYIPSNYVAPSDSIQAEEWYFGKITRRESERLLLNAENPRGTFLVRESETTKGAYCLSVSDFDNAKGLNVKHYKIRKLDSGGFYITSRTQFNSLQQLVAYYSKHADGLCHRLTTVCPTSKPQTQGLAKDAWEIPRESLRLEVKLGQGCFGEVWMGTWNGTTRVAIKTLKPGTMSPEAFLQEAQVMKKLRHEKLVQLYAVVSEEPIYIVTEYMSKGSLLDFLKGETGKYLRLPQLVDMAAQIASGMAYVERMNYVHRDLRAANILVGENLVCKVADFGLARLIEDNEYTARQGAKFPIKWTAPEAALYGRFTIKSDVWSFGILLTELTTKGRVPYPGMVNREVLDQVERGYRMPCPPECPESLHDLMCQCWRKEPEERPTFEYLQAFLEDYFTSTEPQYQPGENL
Put plainly: In vitro kinase activity assay (mobility shift assay), SRC. The settings on record: ATP 19 μM, reaction time 30 min. The procedure:
as §1, §2, §3, §4, §5, §6, §7

The target of the next assay is T7, TRKa (Homo sapiens, UniProt P04629).
T7 construct: purchased Carna 08-186
T7 sequence (P04629 33-796): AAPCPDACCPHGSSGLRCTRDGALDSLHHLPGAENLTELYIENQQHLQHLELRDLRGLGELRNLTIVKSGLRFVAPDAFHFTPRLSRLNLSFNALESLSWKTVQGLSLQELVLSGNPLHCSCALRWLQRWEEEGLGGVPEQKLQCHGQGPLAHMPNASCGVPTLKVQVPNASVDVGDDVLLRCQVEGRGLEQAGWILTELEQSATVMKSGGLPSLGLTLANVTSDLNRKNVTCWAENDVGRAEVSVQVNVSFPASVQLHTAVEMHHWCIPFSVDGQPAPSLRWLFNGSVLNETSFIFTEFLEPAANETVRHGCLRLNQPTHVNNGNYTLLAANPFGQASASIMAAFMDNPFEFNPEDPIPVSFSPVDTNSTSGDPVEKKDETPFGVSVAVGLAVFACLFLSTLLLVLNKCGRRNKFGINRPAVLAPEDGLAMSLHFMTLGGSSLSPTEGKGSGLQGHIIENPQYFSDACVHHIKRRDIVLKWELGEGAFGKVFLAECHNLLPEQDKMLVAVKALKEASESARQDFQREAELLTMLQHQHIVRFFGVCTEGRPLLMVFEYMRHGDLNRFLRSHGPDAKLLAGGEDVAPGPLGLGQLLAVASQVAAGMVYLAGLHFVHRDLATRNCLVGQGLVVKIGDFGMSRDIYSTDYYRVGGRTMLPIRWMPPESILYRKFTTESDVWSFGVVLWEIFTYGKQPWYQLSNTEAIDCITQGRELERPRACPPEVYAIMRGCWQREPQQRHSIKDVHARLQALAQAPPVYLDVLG
Put plainly: In vitro kinase activity assay (mobility shift assay), TRKa. The settings on record: ATP 47.8 μM, reaction time 30 min. Here is the method:
as §1, §2, §3, §4, §5, §6, §7

T1 sequence (Q06187 whole entry C481S): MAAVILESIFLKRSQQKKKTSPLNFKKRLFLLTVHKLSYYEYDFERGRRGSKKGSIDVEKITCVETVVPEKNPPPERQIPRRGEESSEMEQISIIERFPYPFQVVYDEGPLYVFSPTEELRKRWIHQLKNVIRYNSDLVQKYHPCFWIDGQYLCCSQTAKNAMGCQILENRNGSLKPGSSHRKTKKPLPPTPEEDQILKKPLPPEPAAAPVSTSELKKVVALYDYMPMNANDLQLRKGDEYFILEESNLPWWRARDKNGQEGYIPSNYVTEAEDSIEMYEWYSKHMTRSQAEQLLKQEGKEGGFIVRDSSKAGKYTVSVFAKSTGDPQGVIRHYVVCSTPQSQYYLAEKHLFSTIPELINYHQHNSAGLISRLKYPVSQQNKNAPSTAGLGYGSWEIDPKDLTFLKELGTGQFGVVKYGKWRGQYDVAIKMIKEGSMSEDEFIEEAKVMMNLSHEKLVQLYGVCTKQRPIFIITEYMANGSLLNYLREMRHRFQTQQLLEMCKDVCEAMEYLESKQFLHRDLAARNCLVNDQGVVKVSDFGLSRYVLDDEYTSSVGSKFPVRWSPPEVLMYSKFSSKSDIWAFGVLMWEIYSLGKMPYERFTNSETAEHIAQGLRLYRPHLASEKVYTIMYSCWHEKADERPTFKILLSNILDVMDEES
T5 sequence (Q06187 whole entry): as the sequence (Q06187 whole entry C481S) above, with S481C counted along it

Regarding `COC(=O)Nc1ccc(-c2cn3ncc4c3nc2NCc2cc(F)cnc2O[C@@H](C)CNC4=O)c(Cl)c1` [Compound 27], the IC50 (commonly the concentration that inhibits the measured activity by half) at BTK C481S came to 16.9 nM; on RET V804M, 3.25 nM; on RET wt it was 0.629 nM; on RET G810R, 17.2 nM; on BTK it was 15.4 nM; at SRC, 38.4 nM.
On to `Cc1ccc(-c2c3nc4c(cnn4c2N)C(=O)NC[C@H](C)Oc2ncc(F)cc2CN3)cc1` [Example 56], for which the IC50 at BTK C481S turned out to be 0.96 nM; at RET wt it was 1.2 nM; on RET G810R, 49.7 nM; on BTK it was 1.5 nM; on SRC, 0.13 nM.
Take `C[C@H]1CNC(=O)c2cnn3c(N)c(-c4ccccc4)c(nc23)NCc2cc(F)cnc2O1` [Compound 28, (S, 1^3E, 1^4E)-1^7-amino-4^5-fluoro-6-methyl-1^6-phenyl-5-oxa-2,8-diaza-1(5,3)-pyrazolino[1,5-a]pyrimidin-4(3,2)-pyridinacyclononaphan-9-one]: the IC50 turned out to be 0.96 nM on BTK C481S; 9.18 nM on RET V804M; 0.359 nM on RET wt; 12 nM at RET G810R; 1.11 nM at BTK; 0.456 nM at SRC.
Turning to `C[C@H]1CNC(=O)c2cnn3cc(-c4ccc(N5CCOC5=O)cc4Cl)c(nc23)NCc2cc(F)cnc2O1` [Compound 40, (S, 1^3E, 1^4E)-1^6-(2-chloro-4-(2-oxaoxazolidin-3-yl)phenyl)-4^5-fluoro-6-methyl-5-oxa-2,8-diaza-1(5,3)-pyrazolo[1,5-a]pyrimidin-4(3,2)-pyridinacyclononaphan-9-one], the results for the IC50 at RET wt, on BTK and at SRC were 465 nM, 176 nM and 105 nM, respectively.
For the molecule `C[C@H]1CNC(=O)c2cnn3cc(-c4ccccc4)c(nc23)NCc2cc(F)cnc2O1` [Example 1, (S, 1^3E, 1^4E)-4^5-fluoro-6-methyl-1^6-phenyl-5-oxa-2,8-diaza-1(5,3)-pyrazolo[1,5-a]pyrimidina-4(3,2)-pyridinacyclononaphan-9-one], the IC50 on BTK C481S was 31.3 nM; at RET V804M, greater than 10000 nM; at RET wt it was 11 nM; at TRKa, greater than 10 µM; at RET G810R, 42.1 nM; on BTK it was 33.5 nM. For the same molecule, on SRC, the IC50 was found to be 10.8 nM.
For `CNc1c(-c2ccccc2)c2nc3c(cnn13)C(=O)NC[C@H](C)Oc1ncc(F)cc1CN2` [Example 64, (S, 1^3E, 1^4E)-4^5-fluoro-6-methyl-1^7-(methylamino)-1^6-phenyl-5-oxa-2,8-diaza-1(5,3)-pyrazolopyrimidin-4(3,2)-pyridinacyclononaphan-9-one], the IC50 was 128 nM on RET wt, greater than 1000 nM on BTK and 61 nM on SRC.
On to `C[C@H]1CNC(=O)c2cnn3cc(-c4ccc(Oc5ccccc5)cc4)c(nc23)NCc2cc(F)cnc2O1` [Compound 10, (S, 1^3E, 1^4E)-1^6-(4-phenoxyphenyl)-4^5-fluoro-6-methyl-5-oxa-2,8-diaza-1(5,3)-pyrazolo[1,5-a]pyrimidina-4(3,2)-pyridinacyclononaphan-9-one], for which the IC50 on BTK C481S was greater than 10000 nM; on RET V804M it was greater than 10000 nM; on RET wt it was 144 nM; on TRKa, greater than 10 µM; on RET G810R it was greater than 10000 nM; on BTK it was greater than 10000 nM. In addition, the IC50 on SRC was greater than 10000 nM.
Take `CC(C)OC(=O)Nc1ccc(-c2cn3ncc4c3nc2NCc2cc(F)cnc2O[C@@H](C)CNC4=O)cc1` [Compound 31, iso-propyl (4-((S, 1^3E, 1^4E)-4^5-fluoro-6-methyl-9-oxo-5-oxa-2,8-diaza-1(5,3)-pyrazolo[1,5-a]pyrimidin-4(3,2)-pyridinacyclononaphan-1^6-yl)phenyl)carbamate]: the IC50 on RET wt was 4.05 nM; on TRKa it was greater than 10 µM; on RET G810R it was 12.3 nM; on BTK, greater than 10000 nM; at SRC it was 843 nM.
Regarding `COC(=O)Nc1ccc(-c2cn3ncc4c3nc2NCc2cc(F)cnc2O[C@@H](C)CNC4=O)cc1` [Compound 30, methyl (4-((S, 1^3E, 1^4E)-4^5-fluoro-6-methyl-9-oxo-5-oxa-2,8-diaza-1(5,3)-pyrazolo[1,5-a]pyrimidin-4(3,2)-pyridinacyclononaphan-1^6-yl)phenyl) carbamate], the IC50 was 76 nM on RET V804M; 5.1 nM at RET wt; greater than 10 µM on TRKa; 15.1 nM on RET G810R; 5180 nM on BTK; 3110 nM on SRC.
In the case of `CNC(=O)c1ccc(-c2cn3ncc4c3nc2NCc2cc(F)cnc2O[C@@H](C)CNC4=O)cc1` [Compound 19, 4-((S, 1^3E, 1^4E)-4^5-fluoro-6-methyl-9-oxo-5-oxa-2,8-diaza-1(5,3)-pyrazolo[1,5-a]pyrimidin-4(3,2)-pyridinacyclononaphan-1^6-yl)—N-methylbenz amide], the IC50 at BTK C481S is greater than 10000 nM; on RET V804M it was greater than 10000 nM; on RET wt, 48.9 nM; on RET G810R, greater than 10000 nM; on BTK it was greater than 10000 nM; at SRC it was greater than 10000 nM.
Consider `CNc1ccc(-c2c3nc4c(cnn4c2N)C(=O)NC[C@H](C)Oc2ncc(F)cc2CN3)cc1` [Example 54, (S, 1^3E, 1^4E)-1^7-amino-4^5-fluoro-6-methyl-1^6-(4-(methylamino)phenyl)-5-oxo-2,8-diaza-1(5,3)-pyrazolo[1,5-a]pyrimidin-4(3,2)-pyridinacyclononaphan-9-one], for which the IC50 at BTK C481S was 104 nM; on RET V804M, greater than 1000 nM; on RET wt it was 105 nM; on RET G810R, greater than 1000 nM; at BTK, 48 nM; on SRC it was 2.1 nM.
For the molecule `C[C@H]1CNC(=O)c2cnn3cc(-c4ccccn4)c(nc23)NCc2cc(F)cnc2O1` [Compound 33], the IC50 is 407 nM at RET wt, greater than 10000 nM on BTK and 196 nM at SRC.
Regarding `CC(=O)Nc1ccc(-c2cn3ncc4c3nc2NCc2cc(F)cnc2O[C@@H](C)CNC4=O)cc1` [Compound 18], the IC50 on BTK C481S, on RET V804M, on RET wt, at RET G810R, at BTK and on SRC was greater than 10000 nM throughout.
As to `C[C@H]1CNC(=O)c2cnn3c(N)c(-c4ccc(NC(=O)OCC5CC5)cc4)c(nc23)NCc2cc(F)cnc2O1` [Example 63, cyclopropylmethyl (4-((S, 1^3E, 1^4E)-1^7-amino-4^5-fluoro-6-methyl-9-oxo-5-oxo-2,8-diaza-1(5,3)-pyrazolo[1,5-a]pyrimidin-4(3,2)-pyridinacyclononaphan-1^6-yl)phenyl)carbamate], the IC50 on RET V804M came to 3.5 nM; at RET wt it was 1.2 nM; at TRKa, 0.065 µM; on RET G810R, 22 nM; on BTK, 33 nM; at SRC, 2.8 nM.
